Measured values published in patent US20220145249A1, “A Method of Altering a Differentiation Status of a Cell” (Agency for Science, Technology and Research, priority 2019, published 2022).

Columns and labels:
Format in all cases: cell-based, human
[1] = system: iPSC-CRISPR dCas9 SAM cells; test: minimum inhibitory concentration (MIC) assay for geneticin
From the text: The lentiviral vector backbone encodes geneticin as an antibiotic selection marker.

[2] = system: EPO; test: qPCR screening of EPO sgRNA lentiviruses; details: day 4 after transduction, unconcentrated lentivirus supernatant
Procedure: cDNA was synthesized from 1 μg of RNA using the Maxima First Strand cDNA Synthesis Kit (ThermoFisher). Quantitative real-time polymerase chain reaction (qPCR) was carried out using QuantStudio 3 Real-Time PCR System (ThermoFisher). The samples were run in biological triplicates and expression levels normalized using the geometric mean of the “housekeeping” gene: glyceraldehyde phosphate dehydrogenase (GAPDH).
(§1) For this, four different sgRNAs were designed for each of the growth factors/cytokines and constructed lentiviral vectors as mentioned previously (Table 4). For testing the activity of EPO expression, the lentiviruses of four different sgRNAs were produced and screened for the best performing guide in activating EPO expression. The iPSC-CRISPR dCas9 SAM cells were transduced with the unconcentrated lentivirus supernatant of the four sgRNAs individually and tested for their EPO gene expression using qPCR analysis on day 4 cells after transduction. […] Further, the spent media of the cells were collected from two wells of a 12-well plate on days 3 and 4 transduced with EPO_g2 and was stored in −20° C. Next, an Amicon Ultra-15 centrifugal filter was used with 10KDa cut-off membrane (EPO molecular weight: 21 KDa) to concentrate the EPO protein and the retentate washed with 1× PBS was used for ELISA assay.

[3] = system: EPO; test: EPO ELISA of spent medium after endogenous EPO activation; details: iPSC-CRISPR dCas9 SAM cells, spent medium of days 3 and 4 pooled, concentrated with 10 KDa filter, retentate, commercial ELISA
Procedure: FIG. 14 Endogenous activation of erythropoietin (EPO) growth factor in human iPSC-dCas9 SAM cells. (a) qPCR data collected after 4 days of EPO sgRNAs lentivirus (unconcentrated) transduction. (b) EPO ELISA was carried out using two commercially available sources to quantify the CRISPRa EPO. For this, the spent mTesR medium of cells transduced with EPO_g2 were collected on days 3 and 4, the pooled medium was concentrated using Amicon Ultra-15 centrifugal filter (10 KDa cutoff membrane) since the EPO MW is 21 KDa. The retentate was used for quantification using ELISA. According to the standards, the EPO secreted in the medium is in the range of 47-51 IU/mL of EPO.
as §1, with “Next, an Amicon Ultra-15 centrifugal filter was used with 10KDa cut-off membrane (EPO molecular weight: 21 KDa) to concentrate the EPO protein and the retentate washed with 1× PBS was used for ELISA assay.” left out

Compound | MIC of geneticin [1] [µg/mL] | EPO gene expression compared to non-transduced control cells [2] | EPO secreted in the medium [3]
CN[C@@H]1[C@@H](O)[C@@H](O[C@@H]2[C@@H](O)[C@H](O[C@H]3O[C@H]([C@@H](C)O)[C@@H](O)[C@H](O)[C@H]3N)[C@@H](N)C[C@H]2N)OC[C@]1(C)O [geneticin] | 100 |  | 
EPO_g2: sgRNA for EPO, guide sequence TGTGCGTGAGGGGTCGCCAG (listed as DNA, chemistry not given here) |  | higher EPO gene expression | 47-51 IU/mL
